Details: not given

melting point [°C] | Compound
200 to 202 | c1cc(COc2ccc3ccccc3c2)cc(-c2nnn[nH]2)c1 [Example 572, 5-(3-(Naphthalen-2-yloxymethyl)-phenyl)-1H-tetrazole]
331 to 333 | COc1cc(O)cc(OC)c1/C=C1\SC(=O)NC1=O [Example 234, 5-(4-Hydroxy-2,6-dimethoxybenzylidene)thiazolidine-2,4-dione]
251 to 254 | O=C1NC(=O)/C(=C/C(Cl)=C/c2ccccc2)S1 [Example 241, 5-(2-Chloro-3-phenylallylidene)thiazolidine-2,4-dione]
338 to 347 | O=C1NC(=O)/C(=C/c2cc3ccccc3[nH]c2=O)S1 [Example 242, 5-(2-Oxo-1,2-dihydroquinolin-3-ylmethylene)thiazolidine-2,4-dione]
203 to 210 | CC(/C=C1\SC(=O)NC1=O)=C\c1ccccc1 [Example 240, 5-(2-Methyl-3-phenylallylidene)thiazolidine-2,4-dione]
259 to 263 | CN(C)c1ccc(/C=C/C=C2\SC(=O)NC2=O)cc1 [Example 239, 5-[3-(4-Dimethylaminophenyl)allylidene]thiazolidine-2,4-dione]
255 to 256 | COc1cc(OCc2c(F)cccc2[N+](=O)[O-])cc(OC)c1/C=C1\SC(=O)NC1=O [Example 237, 5-[4-(2-Fluoro-6-nitrobenzyloxy)-2,6-dimethoxybenzylidene]thiazolidine-2,4-dione]
265 to 266 | O=C1NC(=O)/C(=C/c2cc3ccccc3o2)S1 [Example 238, 5-Benzofuran-2-ylmethylenethiazolidine-2,4-dione]

Further lines, the compound ahead of its results:

Compound | melting point [°C]
O=C1NC(=O)/C(=C/c2c[nH]c3ccc([N+](=O)[O-])cc23)S1 [Example 199, 5-(5-Nitro-1H-indol-3-ylmethylene)thiazolidine-2,4-dione] | 330 to 333
O=C1NC(=O)/C(=C/c2c(Cl)cccc2Cl)S1 [Example 229, 5-(2,6-Dichlorobenzylidene)thiazolidine-2,4-dione] | 152 to 154
COc1cc(C=C2SC(=O)NC2=O)cc(I)c1O [Example 167, 5-(4-Hydroxy-3-iodo-5-methoxybenzylidene)thiazolidine-2,4-dione] | 256
O=C1NC(=O)/C(=C/c2ccc3cc(O)ccc3c2)S1 [Example 171, 5-(6-Hydroxy-2-naphthylmethylene) thiazolidine-2,4-dione] | 310 to 314

Details: after subcutaneous injection of a soluble preparation; background statement; cited from earlier work

Compound | absorption rates
Co^3+-hexamer: "absorption rates vary between about 1 hour (for rapid-acting insulin analogues ...) and about 4 hours (Co^3+-hexamer)" | about 4 hour

Same assay, conditions: in vivo, sc; cited from earlier work

Compound | absorption rates | absorption half-life
Asp^B28 human insulin | about 1 hour | –
soluble human insulin hexamer: "inherent limitation of the absorption half-life to about 4 hours for a soluble human insulin hexamer" | – | about 4 hours

From patent publication US20060069013A1, “Pharmaceutical preparations comprising acid-stabilised insulin” (Novo Nordisk A/S, priority 2003, published 2006)
